From patent US20120135975A1, “Substituted Esters as Cannabinoid-1 Receptor Modulators” (MERCK & CO., INC., priority 2006, published 2012) come the findings set out here.

In experiment [1] the target is T1, recombinant human CB1 receptor (Homo sapiens, UniProt P21554).
T1 construct: expressed in transfected cells
The experiment in a line: Cannabinoid Receptor-1 (CB1) functional activity assay (cAMP). Format: cell-based. The following applies: CB1-CHO cells, forskolin-stimulated cAMP. The protocol:
(§1) The functional activation of CB1 receptor is based on recombinant human CB1 receptor expressed in CHO cells (Felder et al, Mol. Pharmacol. 48: 443-450, 1995). To determine the agonist activity or inverse agonist activity of any test compound, 50 μL of CB1-CHO cell suspension are mixed with test compound and 70 uL assay buffer containing 0.34 mM 3-isobutyl-1-methylxanthine and 5.1 μM of forskolin in 96-well plates. The assay buffer is comprised of Earle's Balanced Salt Solution supplemented with 5 mM MgCl2, 1 mM glutamine, 10 mM HEPES, and 1 mg/mL bovine serum albumin. The mixture is incubated at room temperature for 30 minutes, and terminated by adding 30 μl/well of 0.5M HCl. The total intracellular cAMP level is quantitated using the New England Nuclear Flashplate and cAMP radioimmunoassay kit.
(§2) To determine the antagonist activity of test compound, the reaction mixture also contains 0.5 nM of the agonist CP55940, and the reversal of the CP55940 effect is quantitated. Alternatively, a series of dose response curves for CP55940 is performed with increasing concentration of the test compound in each of the dose response curves.

The target in experiment [2] is T2, recombinant human CB2 receptor (Homo sapiens, UniProt P34972).
T2 construct: expressed in transfected cells
T2 sequence (P34972 whole entry): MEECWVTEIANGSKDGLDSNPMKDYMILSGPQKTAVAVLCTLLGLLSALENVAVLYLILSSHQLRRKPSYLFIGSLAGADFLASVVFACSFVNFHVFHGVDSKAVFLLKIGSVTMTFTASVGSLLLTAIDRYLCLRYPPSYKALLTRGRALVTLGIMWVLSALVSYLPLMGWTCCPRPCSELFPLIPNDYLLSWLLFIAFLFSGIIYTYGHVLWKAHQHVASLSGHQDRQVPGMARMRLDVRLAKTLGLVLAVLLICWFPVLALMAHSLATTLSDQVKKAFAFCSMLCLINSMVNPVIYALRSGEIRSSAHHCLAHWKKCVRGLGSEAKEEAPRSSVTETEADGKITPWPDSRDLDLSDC
Briefly: CB2 receptor functional assay (cAMP). It is filed as cell-based. The following applies: CB2 receptor expressed in CHO cells. The protocol: as §1, §2
The functional assay for the CB2 receptor is done similarly with recombinant human CB2 receptor expressed in CHO cells.

Experiment [3] addresses T1, recombinant human CB1 receptor. Briefly: Cannabinoid Receptor-1 (CB1) binding assay. The following applies: [3H]CP-55940 0.6 nM, receptor expressed in CHO cells. The protocol:
(§3) Binding affinity determination is based on recombinant human CB1 receptor expressed in Chinese Hamster Ovary (CHO) cells (Felder et al, Mol. Pharmacol. 48: 443-450, 1995). Total assay volume is 250 μL (240 μL CB1 receptor membrane solution plus 5 μL test compound solution plus 5 μL [3H]CP-55940 solution). Final concentration of [3H]CP-55940 is 0.6 nM. Binding buffer contains 50 mM Tris-HCl, pH7.4, 2.5 mM EDTA, 5 mM MgCl2, 0.5 mg/mL fatty acid free bovine serum albumin and protease inhibitors (Cat#P8340, from Sigma). To initiate the binding reaction, 5 μL of radioligand solution is added, the mixture is incubated with gentle shaking on a shaker for 1.5 hours at 30° C. The binding is terminated by using 96-well harvester and filtering through GF/C filter presoaked in 0.05% polyethylenimine. The bound radiolabel is quantitated using scintillation counter. Apparent binding affinities for various compounds are calculated from IC50 values (DeBlasi et al., Trends Pharmacol Sci 10: 227-229, 1989).

For experiment [4], the target named is T2, recombinant human CB2 receptor. The experiment in a line: CB2 receptor binding assay. The following applies: receptor expressed in CHO cells. The protocol:
as §3
The binding assay for CB2 receptor is done similarly with recombinant human CB2 receptor expressed in CHO cells.

T1 sequence (P21554 whole entry): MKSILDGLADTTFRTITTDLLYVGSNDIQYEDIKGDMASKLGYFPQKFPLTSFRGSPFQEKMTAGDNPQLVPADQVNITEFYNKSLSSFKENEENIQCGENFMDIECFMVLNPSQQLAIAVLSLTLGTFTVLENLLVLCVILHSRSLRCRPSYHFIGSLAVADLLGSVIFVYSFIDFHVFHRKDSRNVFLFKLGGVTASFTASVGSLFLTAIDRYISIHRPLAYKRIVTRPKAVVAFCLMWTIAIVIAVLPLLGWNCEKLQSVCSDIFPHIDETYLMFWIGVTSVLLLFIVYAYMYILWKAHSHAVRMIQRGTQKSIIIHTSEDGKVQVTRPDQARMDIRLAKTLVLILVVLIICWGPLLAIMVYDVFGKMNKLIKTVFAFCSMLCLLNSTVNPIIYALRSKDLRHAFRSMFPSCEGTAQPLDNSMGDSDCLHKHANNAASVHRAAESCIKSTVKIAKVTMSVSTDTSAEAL

By EC50 is commonly meant the concentration that produces a half-maximal response. One may read the IC50 as the midpoint of a concentration-inhibition curve. Turning to `C[C@H](NC(=O)C(C)(C)OC(=O)c1c(Cl)cccc1Cl)[C@@H](Cc1ccc(Cl)cc1)c1cccc(C#N)c1` [Example 30, N-(3-(4-chlorophenyl)-2(S)-(3-cyanophenyl)-1(S)-methylpropyl)-2-(2,6-dichloro-benzoyloxy)-2-methyl-propanamide], in experiment [1], the “% max in the CB1 functional assay” value is listed as −157 % max and the EC50 is 1.85 nM. Moreover, in experiment [2], the “% max in the CB2 functional assay” value is −192 % max and the EC50 came to 162 nM. Moreover, the IC50 in experiment [3] stood at 2.54 nM. The IC50 in experiment [4] was determined as 811 nM.
